We go through twelve compounds from US8471005B2 (Cephalon, Inc., priority 2008, dated 2013).

Where only a bound is given, the exact number is not on record here.

In one test the target is T1, ALK (Homo sapiens, UniProt Q9UM73).
T1 construct: host or cells: baculovirus expression system
The test can be described thus: ALK Kinase Assay (ELISA/TRF, PLC-γ substrate). The format is biochemical. As to conditions: ALK Kinase Inhibition; read-out: ALK Potency. The procedure, abridged: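 IC50 values derive from percent inhibition plotted against log10 compound concentration and fitted to a variable-slope sigmoidal equation. The underlying reaction used 30 ng/ml ALK acting on immobilized PLC-γ (10 μg/mL in TBS) at 37° C for 15 minutes, read with Eu-N1 PT66 antibody.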
Background: ELISA stands for enzyme-linked immunosorbent assay.

Another test has as its target T2, JAK2 (Homo sapiens, UniProt O60674).
T2 construct: host or cells: baculovirus expression system
The test can be described thus: Recombinant Human JAK2 Kinase Assay (TRF). The format is biochemical. As to conditions: JAK2 Kinase Inhibition; read-out: JAK2 Potency. A digest of the protocol: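 Baculovirus-expressed JAK2 (15 ng/ml) phosphorylated a biotinylated 15-mer peptide captured on Neutravidin, in 20 mM HEPES pH 7.2, 0.2 μM ATP, 1 mM MnCl2, 0.1% BSA, 2.5% DMSO final, 20 min at room temperature. Phosphoproduct detected by time-resolved fluorescence with Eu-N1-labelled PY100 antibody.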

T1 sequence (Q9UM73 19-1620): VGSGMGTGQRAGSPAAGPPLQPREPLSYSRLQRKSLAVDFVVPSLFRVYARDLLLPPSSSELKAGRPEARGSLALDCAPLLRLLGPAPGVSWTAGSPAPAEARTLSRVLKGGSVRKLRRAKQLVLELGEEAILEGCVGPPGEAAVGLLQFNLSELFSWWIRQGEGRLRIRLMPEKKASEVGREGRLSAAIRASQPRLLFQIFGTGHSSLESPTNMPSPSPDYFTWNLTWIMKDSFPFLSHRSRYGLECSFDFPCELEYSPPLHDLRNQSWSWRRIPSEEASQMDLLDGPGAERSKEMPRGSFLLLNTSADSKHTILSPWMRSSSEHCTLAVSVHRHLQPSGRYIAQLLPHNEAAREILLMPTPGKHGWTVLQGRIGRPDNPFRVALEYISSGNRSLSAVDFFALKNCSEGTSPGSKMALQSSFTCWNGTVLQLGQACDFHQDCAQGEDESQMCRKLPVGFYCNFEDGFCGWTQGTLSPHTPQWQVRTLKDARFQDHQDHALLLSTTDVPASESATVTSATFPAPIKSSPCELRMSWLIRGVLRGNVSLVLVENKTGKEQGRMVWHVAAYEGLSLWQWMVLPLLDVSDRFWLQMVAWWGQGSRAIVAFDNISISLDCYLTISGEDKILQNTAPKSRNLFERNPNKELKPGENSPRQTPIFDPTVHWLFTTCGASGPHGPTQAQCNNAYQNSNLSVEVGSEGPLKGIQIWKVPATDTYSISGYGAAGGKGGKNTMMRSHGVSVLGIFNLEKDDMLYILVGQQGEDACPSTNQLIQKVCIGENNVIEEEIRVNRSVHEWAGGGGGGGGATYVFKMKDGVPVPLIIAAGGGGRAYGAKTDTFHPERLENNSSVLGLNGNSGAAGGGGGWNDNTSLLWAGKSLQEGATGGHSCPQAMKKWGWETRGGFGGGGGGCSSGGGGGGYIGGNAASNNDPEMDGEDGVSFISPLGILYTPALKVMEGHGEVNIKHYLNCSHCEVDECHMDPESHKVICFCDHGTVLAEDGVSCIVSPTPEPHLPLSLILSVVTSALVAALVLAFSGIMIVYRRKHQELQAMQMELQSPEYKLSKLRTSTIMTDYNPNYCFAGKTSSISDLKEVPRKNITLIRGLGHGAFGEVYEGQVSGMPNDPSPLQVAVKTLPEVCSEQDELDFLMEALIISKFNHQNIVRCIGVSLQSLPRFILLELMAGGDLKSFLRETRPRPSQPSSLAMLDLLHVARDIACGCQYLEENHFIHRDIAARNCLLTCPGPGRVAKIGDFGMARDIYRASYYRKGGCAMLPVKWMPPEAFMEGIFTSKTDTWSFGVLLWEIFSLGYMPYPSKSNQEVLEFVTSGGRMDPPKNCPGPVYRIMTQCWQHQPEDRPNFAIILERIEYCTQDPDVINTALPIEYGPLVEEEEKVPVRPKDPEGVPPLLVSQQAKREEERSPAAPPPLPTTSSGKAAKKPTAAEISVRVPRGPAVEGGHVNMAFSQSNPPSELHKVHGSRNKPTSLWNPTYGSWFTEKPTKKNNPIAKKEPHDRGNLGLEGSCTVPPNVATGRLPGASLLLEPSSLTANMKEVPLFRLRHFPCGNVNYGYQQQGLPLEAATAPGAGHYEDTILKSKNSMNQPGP
T2 sequence (O60674 whole entry): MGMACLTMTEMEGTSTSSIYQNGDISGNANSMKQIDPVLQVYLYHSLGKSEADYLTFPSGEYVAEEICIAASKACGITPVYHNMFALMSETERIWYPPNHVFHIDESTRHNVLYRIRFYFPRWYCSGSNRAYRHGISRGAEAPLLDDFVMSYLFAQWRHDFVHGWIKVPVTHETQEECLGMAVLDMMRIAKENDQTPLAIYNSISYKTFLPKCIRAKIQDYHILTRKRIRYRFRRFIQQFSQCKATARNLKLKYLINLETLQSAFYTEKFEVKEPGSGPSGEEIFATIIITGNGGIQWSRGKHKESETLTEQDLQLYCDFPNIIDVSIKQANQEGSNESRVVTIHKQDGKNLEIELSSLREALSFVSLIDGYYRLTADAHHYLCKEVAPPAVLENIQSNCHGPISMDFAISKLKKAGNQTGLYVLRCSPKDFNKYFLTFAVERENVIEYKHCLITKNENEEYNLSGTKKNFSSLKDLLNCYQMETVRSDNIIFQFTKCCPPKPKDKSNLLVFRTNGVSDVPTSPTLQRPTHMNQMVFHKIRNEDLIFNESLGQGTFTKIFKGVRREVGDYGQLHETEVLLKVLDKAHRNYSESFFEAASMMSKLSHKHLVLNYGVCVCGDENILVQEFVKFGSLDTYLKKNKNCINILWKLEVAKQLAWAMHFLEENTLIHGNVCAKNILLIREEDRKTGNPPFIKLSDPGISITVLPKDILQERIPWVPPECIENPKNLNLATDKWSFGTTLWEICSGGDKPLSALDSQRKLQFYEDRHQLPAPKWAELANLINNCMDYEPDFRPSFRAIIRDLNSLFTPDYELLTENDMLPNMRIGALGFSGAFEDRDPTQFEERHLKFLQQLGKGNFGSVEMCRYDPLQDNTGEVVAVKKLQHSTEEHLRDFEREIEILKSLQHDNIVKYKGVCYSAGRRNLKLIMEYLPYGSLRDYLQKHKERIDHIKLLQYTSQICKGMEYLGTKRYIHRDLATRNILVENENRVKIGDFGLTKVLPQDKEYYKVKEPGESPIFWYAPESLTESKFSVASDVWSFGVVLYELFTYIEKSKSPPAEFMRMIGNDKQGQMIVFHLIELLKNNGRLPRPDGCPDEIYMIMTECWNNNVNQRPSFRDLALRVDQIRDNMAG

For `CN1CCN(c2ccc(Nc3ncc4ccc(-c5ccccc5Cl)n4n3)cc2)CC1` [Example 25, [7-(2-Chloro-phenyl)-pyrrolo[2,1-f][1,2,4]triazin-2-yl]-[4-(4-methyl-piperazin-1-yl)-phenyl]-amine], the IC50 at ALK and on JAK2 was below 0.1 µM in each case.

`CN1CCN(c2ccc(Nc3ncc4ccc(-c5cccc(Cl)c5)n4n3)cc2)CC1` [Example 26, [7-(3-Chloro-phenyl)-pyrrolo[2,1-f][1,2,4]triazin-2-yl]-[4-(4-methyl-piperazin-1-yl)-phenyl]-amine]: the IC50 at ALK and at JAK2 was below 0.1 µM in each case.

On to `CN1CCN(c2ccc(Nc3ncc4ccc(-c5cccnc5)n4n3)cc2)CC1` [Example 27, [4-(4-Methyl-piperazin-1-yl)-phenyl]-(7-pyridin-3-yl-pyrrolo[2,1-f][1,2,4]triazin-2-yl)-amine], for which the figures for the IC50 at ALK and on JAK2 were 0.1 to 1 µM and below 0.1 µM, respectively.

`c1ccc(-c2ccc3cnc(NCCN4CCOCC4)nn23)cc1` [Example 28, (2-Morpholin-4-yl-ethyl)-(7-phenyl-pyrrolo[2,1-f][1,2,4]triazin-2-yl)-amine]: the results for the IC50 at ALK and at JAK2 were above 10 µM and 1 to 10 µM, respectively.

As for `c1ccc(-c2ccc3cnc(NCCCN4CCOCC4)nn23)cc1` [Example 29, (3-Morpholin-4-yl-propyl)-(7-phenyl-pyrrolo[2,1-f][1,2,4]triazin-2-yl)-amine], the values for the IC50 at ALK and on JAK2 were above 10 µM and 1 to 10 µM, respectively.

For the compound `COCCN1CCc2ccc(Nc3ncc4ccc(-c5ccccc5OC)n4n3)cc2CC1` [Example 30, [3-(2-Methoxy-ethyl)-2,3,4,5-tetrahydro-1H-benzo[d]azepin-7-yl]-[7-(2-methoxy-phenyl)-pyrrolo[2,1-f][1,2,4]triazin-2-yl]-amine], the IC50 at ALK and on JAK2 was below 0.1 µM throughout.

Take `COCCN1CCc2ccc(Nc3ncc4ccc(-c5ccccc5S(=O)(=O)N(C)C)n4n3)cc2CC1` [Example 31, 2-{2-[3-(2-Methoxy-ethyl)-2,3,4,5-tetrahydro-1H-benzo[d]azepin-7-ylamino]-pyrrolo[2,1-f][1,2,4]triazin-7-yl}-N,N-dimethyl-benzenesulfonamide]: the IC50 at ALK is 0.1 to 1 µM; at JAK2, below 0.1 µM.

Turning to `COCCN1CCc2ccc(Nc3ncc4ccc(-c5ccccc5S(=O)(=O)N5CCCC5)n4n3)cc2CC1` [Example 32, [3-(2-Methoxy-ethyl)-2,3,4,5-tetrahydro-1H-benzo[d]azepin-7-yl]-{7-[2-(pyrrolidine-1-sulfonyl)-phenyl]-pyrrolo[2,1-f][1,2,4]triazin-2-yl}-amine], the figures for the IC50 at ALK and at JAK2 were 0.1 to 1 µM and below 0.1 µM, respectively.

With `COc1cc(N2CCN(C)CC2)ccc1Nc1ncc2ccc(-c3ccccc3OC)n2n1` [Example 33, [2-Methoxy-4-(4-methyl-piperazin-1-yl)-phenyl]-[7-(2-methoxy-phenyl)-pyrrolo[2,1-f][1,2,4]triazin-2-yl]-amine], the IC50 at ALK and at JAK2 was below 0.1 µM each time.

Turning to `COc1cc(N2CCN(C)CC2)ccc1Nc1ncc2ccc(-c3cccnc3OC)n2n1` [Example 34, [2-Methoxy-4-(4-methyl-piperazin-1-yl)-phenyl]-[7-(2-methoxy-pyridin-3-yl)-pyrrolo[2,1-f][1,2,4]triazin-2-yl]-amine], the IC50 at ALK and on JAK2 was below 0.1 µM throughout.

As to `COc1cc(N2CCN(C)CC2)ccc1Nc1ncc2ccc(-c3ccccc3S(=O)(=O)N(C)C)n2n1` [Example 35, 2-{2-[2-Methoxy-4-(4-methyl-piperazin-1-yl)-phenylamino]-pyrrolo[2,1-f][1,2,4]triazin-7-yl}-N,N-dimethyl-benzenesulfonamide], the values for the IC50 at ALK and at JAK2 were 0.1 to 1 µM and 1 to 10 µM, respectively.

As for `NC(=O)c1ccccc1-c1ccc2cnc(Nc3ccc(N4CCOCC4)cc3)nn12` [Example 36, 2-[2-(4-Morpholin-4-yl-phenylamino)-pyrrolo[2,1-f][1,2,4]triazin-7-yl]-benzamide], the IC50 was 1 to 10 µM at ALK and below 0.1 µM on JAK2.
